{"source": "patent US20250281497A1", "about": "“FUSED AMINO PYRIMIDINE COMPOUNDS FOR TREATMENT OF SEIZURE DISORDERS” (Ovid Therapeutics Inc., priority 2024, published 2025)", "key": {"[1]": {"system": "panel of 144 protein kinases", "test": "SelectScreen panel of 144 protein kinases", "assay_type": "biochemical", "details": "includes PKC isoforms, OSR1, SPAK, WNK", "description": "(§1) Aliquots of HEK-293 cells expressing KCC2 were exposed to 30 μM SSA, heated from 37-55° C. The remaining level of soluble native KCC2 at each temperature was measured by immunoblotting and normalized to the level seen at 37° C. which was given a value of 1. […] This panel included protein kinase C isoforms, OSR1, SPAK (STK39) and with-no-lysine kinases (WNK), all of which phosphorylate KCC2 on multiple residues to indirectly modify its activity (Kahle et al., 2013, supra; Smalley et al., 2020, supra)."}, "hippocampal neurons": {"system": "hippocampal neurons", "test": "Whole cell patch clamp with imposed Cl− load, hippocampal neurons", "assay_type": "cell-based, Sprague Dawley", "details": "1 h incubation, 32 mM Cl− load; controls −47.4±2.3", "description": "Neuronal Cultures. Hippocampal neurons were prepared from Sprague Dawley E18 embryos and plated at 450,000 per dish and maintained at 37° C. in a humidified 5% CO2 incubator for 10-25 days before experimentation (Lee et al., Nat. Neurosci. 14, 736-743 (2011)).\nNeuronal Patch clamp assays. Neuronal cell culture recordings were performed in bath saline at 34° C. For gramicidin perforated-patch experiments, pipettes contained (in mM): 140 KCl and 10 HEPES, pH 7.4 KOH. For whole-cell experiments, pipettes contained (in mM): 115 K-meth-SO^4, 30 KCl, 2 Mg-ATP, 4 Na-ATP, 0.4 Na-GTP, and 10 HEPES, pH 7.4 KOH. Bath saline contained the following (in mM): 140 NaCl, 2.5 KCl, 2.5 CaCl2, 2.5 MgCl2, 10 HEPES, and 11 glucose, pH 7.4 NaOH (Kontou et at, 2021, supra). All compound solutions were applied to cells using a three-barreled 700 μm pipe positioned just above the cell (Warner Instruments). […] All voltages from whole-cell experiments were corrected offline using a calculated liquid junction potential value (13.6 mV) in Clampex (Molecular Devices). For gramicidin perforated-patch experiments, intracellular Cl^− values were back-calculated using measured EGABA values and the Nernst equation: […]\n5 min after break-in, an initial EGABA value was determined and the effects of a subsequent 5 min incubation with VU0463271 was assessed."}, "KCC2": {"molecular_target": "T1, KCC2 (Homo sapiens, UniProt Q9H2X9)", "T1 construct": "expressed in transfected cells; host or cells: HEK-293 (ATCC CRL-1573)", "T1 sequence (Q9H2X9 1-1116 isoform Q9H2X9-2)": "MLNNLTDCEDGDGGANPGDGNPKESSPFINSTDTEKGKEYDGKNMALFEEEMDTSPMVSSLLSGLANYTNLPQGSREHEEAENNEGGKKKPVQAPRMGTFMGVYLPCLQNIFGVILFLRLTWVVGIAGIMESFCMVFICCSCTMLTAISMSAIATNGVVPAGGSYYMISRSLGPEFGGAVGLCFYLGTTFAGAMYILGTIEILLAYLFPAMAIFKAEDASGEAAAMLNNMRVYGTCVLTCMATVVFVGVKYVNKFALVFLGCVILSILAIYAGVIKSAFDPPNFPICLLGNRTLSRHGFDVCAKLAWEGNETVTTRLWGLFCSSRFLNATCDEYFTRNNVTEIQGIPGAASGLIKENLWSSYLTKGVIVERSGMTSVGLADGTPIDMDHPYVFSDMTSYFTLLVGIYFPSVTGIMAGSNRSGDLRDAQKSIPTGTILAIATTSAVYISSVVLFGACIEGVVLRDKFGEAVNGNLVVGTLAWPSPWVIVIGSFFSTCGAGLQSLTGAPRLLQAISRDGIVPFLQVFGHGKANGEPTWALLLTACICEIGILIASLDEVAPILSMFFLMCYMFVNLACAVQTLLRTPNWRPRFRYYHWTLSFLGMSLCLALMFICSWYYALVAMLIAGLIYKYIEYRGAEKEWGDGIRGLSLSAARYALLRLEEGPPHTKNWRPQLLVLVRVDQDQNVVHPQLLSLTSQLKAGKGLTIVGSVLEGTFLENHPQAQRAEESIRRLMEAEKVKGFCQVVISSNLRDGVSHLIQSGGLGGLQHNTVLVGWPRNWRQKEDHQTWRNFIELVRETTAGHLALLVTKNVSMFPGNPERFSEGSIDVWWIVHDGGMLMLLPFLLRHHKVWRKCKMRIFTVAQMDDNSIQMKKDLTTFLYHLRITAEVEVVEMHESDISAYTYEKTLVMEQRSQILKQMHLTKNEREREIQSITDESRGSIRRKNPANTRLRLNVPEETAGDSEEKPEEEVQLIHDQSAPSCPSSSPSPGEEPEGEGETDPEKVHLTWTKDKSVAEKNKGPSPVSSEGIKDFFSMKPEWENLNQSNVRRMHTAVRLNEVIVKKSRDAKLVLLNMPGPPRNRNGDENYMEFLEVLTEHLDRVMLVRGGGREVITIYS", "test": "Cellular thermal shift assay (CETSA) in transfected HEK-293 cells", "assay_type": "binding", "details": "30 μM, 90 min, heated 37-58° C.", "description": "Determining if compounds in SSA directly interact with KCC2. This was tested using a cellular thermal shift assay (CETSA), which measures the ability of a drug to modify the thermal stability of its target in whole cells (Kawatkar et al., ACS Chem. Biol. 14, 1913-1920 (2019); Martinez et al., Sci Rep 8, 9472 (2018)).\n2×10^6 transfected HEK-293 cells were incubated with 30 μM drug or vehicle for 90 min at 37° C. and then heated from 37-58° C. for 5 min. Cells were rapidly chilled to 25° C. and NP40 was added to a final concentration […] to snap freezing in liquid nitrogen. Following 5 freeze/thaw cycles lysates were centrifuged at 12,000×g to remove denatured proteins and associated cell debris.\nas §1"}}, "data": [{"compound": "C[C@@H]1CN(c2nc3c(c(Nc4ccc(C5CCCCC5)cc4)n2)COC3)CCO1", "note": "[Compound A, (R)—N-(4-cyclohexylphenyl)-2-(2-methylmorpholino)-5,7-dihydrofuro[3,4-d]pyrimidin-4-amine]", "values": [{"measurement": "activity of panel of 144 protein kinases", "setting": "[1]", "result": "did not modify the activity of this kinase panel"}, {"measurement": "basal EGABA", "setting": "hippocampal neurons", "result": "−59.3±2.1", "unit": "mV"}, {"measurement": "thermal stability of KCC2 / direct binding (CETSA)", "setting": "KCC2", "result": "capable of directly binding to KCC2"}]}]}
